Data: PubChem BioAssay (NCI)
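Tested at 5 concentrations; 48 h exposure; 96-well plates; endpoints linearly interpolated, else capped at highest concentration. The concentration for full growth arrest is given as TGI.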

Legend:
Assay in all cases: NCI tumour cell line growth inhibition, 48 h
SW-620 colon = tested on: SW-620 colon
UACC-62 melanoma = tested on: UACC-62 melanoma
SK-MEL-28 melanoma = tested on: SK-MEL-28 melanoma
HOP-92 NSCLC = tested on: HOP-92 NSCLC
UO-31 renal = tested on: UO-31 renal
LXFL 529 NSCLC = tested on: LXFL 529 NSCLC
IGROV1 ovarian = tested on: IGROV1 ovarian
SK-OV-3 ovarian = tested on: SK-OV-3 ovarian
K-562 leukemia = tested on: K-562 leukemia
OVCAR-4 ovarian = tested on: OVCAR-4 ovarian
A549 NSCLC = tested on: A549 NSCLC
SF-295 CNS = tested on: SF-295 CNS
SF-539 CNS = tested on: SF-539 CNS
MALME-3M melanoma = tested on: MALME-3M melanoma
SNB-75 CNS = tested on: SNB-75 CNS
HCC-2998 colon = tested on: HCC-2998 colon
SNB-19 CNS = tested on: SNB-19 CNS
HCT-116 colon = tested on: HCT-116 colon
NCI-H23 lung = tested on: NCI-H23 lung
XF 498 CNS = tested on: XF 498 CNS
SK-MEL-5 melanoma = tested on: SK-MEL-5 melanoma
MOLT-4 leukemia = tested on: MOLT-4 leukemia
SR leukemia = tested on: SR leukemia
OVCAR-8 ovarian = tested on: OVCAR-8 ovarian
M19-MEL melanoma = tested on: M19-MEL melanoma
LOX IMVI melanoma = tested on: LOX IMVI melanoma
COLO 205 colon = tested on: COLO 205 colon
NCI-H226 lung = tested on: NCI-H226 lung
KM12 colon = tested on: KM12 colon
RPMI-8226 leukemia = tested on: RPMI-8226 leukemia
U251 CNS = tested on: U251 CNS
SF-268 CNS = tested on: SF-268 CNS
NCI-H522 lung = tested on: NCI-H522 lung
HCT-15 colon = tested on: HCT-15 colon
SN12C renal = tested on: SN12C renal
UACC-257 melanoma = tested on: UACC-257 melanoma
RXF 393 renal = tested on: RXF 393 renal
SNB-78 CNS = tested on: SNB-78 CNS
TK-10 renal = tested on: TK-10 renal
RXF-631 renal = tested on: RXF-631 renal
M14 melanoma = tested on: M14 melanoma
KM20L2 colon = tested on: KM20L2 colon
HOP-62 NSCLC = tested on: HOP-62 NSCLC
OVCAR-3 ovarian = tested on: OVCAR-3 ovarian
CAKI-1 renal = tested on: CAKI-1 renal
OVCAR-5 ovarian = tested on: OVCAR-5 ovarian
DMS 114 small cell lung = tested on: DMS 114 small cell lung
HL-60(TB) leukemia = tested on: HL-60(TB) leukemia
786-0 renal = tested on: 786-0 renal
HT29 colon = tested on: HT29 colon
ACHN renal = tested on: ACHN renal
NCI-H460 lung = tested on: NCI-H460 lung
DLD-1 colon = tested on: DLD-1 colon
DMS 273 small cell lung = tested on: DMS 273 small cell lung
EKVX NSCLC = tested on: EKVX NSCLC
CCRF-CEM leukemia = tested on: CCRF-CEM leukemia
SK-MEL-2 melanoma = tested on: SK-MEL-2 melanoma
HOP-18 NSCLC = tested on: HOP-18 NSCLC

Measured: TGI

O=[N+]([O-])c1c(C=Nc2ccccc2)oc(-c2ccc3c(c2)OCO3)c1-c1ccc2c(c1)OCO2
not listed: EKVX NSCLC | CCRF-CEM leukemia | SK-MEL-2 melanoma | HOP-18 NSCLC
> 100 µM: all other assays above

CC[C@@H]1C[C@H]2CC3c4[nH]c5ccc(O)cc5c4CCN(C2)C31
not listed: SK-OV-3 ovarian | OVCAR-4 ovarian | SK-MEL-5 melanoma | NCI-H522 lung | DLD-1 colon
> 100 µM: all other assays above
